Results on six molecules are retold here after patent US20230017539A1, “TRI-HETEROCYCLIC COMPOUND AS JAK INHIBITOR, AND USE THEREOF” (CHIA TAI TIANQING PHARMACEUTICAL GROUP CO., LTD., priority 2019, published 2023).

A value given as a limit tells only on which side of the number the result lay.

Assay [1] has as its target T1, JAK1(h) (Homo sapiens, UniProt P23458).
T1 construct: purchased Eurofins, UK
The assay is described as follows: In vitro activity assay of JAK1 kinase (radiometric, [γ-33P]-ATP). As to conditions: recombinant human JAK1, 40 min at room temperature. Format: biochemical. The protocol: (§1) Recombinant human JAK1, JAK2, JAK3 and Tyk2 […], and main instruments and reagents were all provided by Eurofins, UK.
(§2) Dilution of JAK2, JAK3 and TYK2: 20 mM 3-(N-morpholino)propanesulfonic acid (MOPS), 1 mM EDTA, 0.01% Brij-35.5% glycerol, 0.1% β-mercaptoethanol, and 1 mg/mL BSA; dilution of JAK1: 20 mM TRIS, 0.2 mM EDTA, 0.1% β-mercaptoethanol, and 0.01% Brij-35.5% glycerol. All compounds were prepared as 100% DMSO solutions, and the concentration was brought to 50 times the final assay concentration. A test compound was diluted with a 3-fold gradient, with a total of 9 final concentrations ranging from 10 μM to […]. The DMSO content in the assay reaction was 2%. The working stock solution of the compound was added into the assay wells as a first component of the reaction, and the remaining components were then added according to the protocol detailed for the assay below.
JAK1(h) was incubated with 20 mM Tris/HC pH 7.5, 0.2 mM EDTA, 500 μM MGEEPLYWSFPAKKK (SEQ ID NO: 1), 10 mM magnesium acetate and [γ-^33P]-ATP (the activity and concentration were tailored as required). The reaction was started by adding a Mg/ATP mixture, and terminated by adding 0.5% phosphoric acid after 40 min of incubation at room temperature. 10 μL of the reactant was then dotted on a P30 filter pad, washed three times with 0.425% phosphoric acid and once with methanol within 4 minutes, and dried, and scintillation counting was performed.
(§3) The IC50 results were obtained by analysis using XLFITS (formula 205) of IDBS company and detailed in Table 1.

Assay [2] has as its target T2, JAK2(h) (Homo sapiens, UniProt O60674).
T2 construct: purchased Eurofins, UK
The assay is described as follows: In vitro activity assay of JAK2 kinase (radiometric, [γ-33P]-ATP). Format: biochemical. Conditions: recombinant human JAK2, 40 min at room temperature. The protocol:
as §1, §2
JAK2(h) was incubated with 8 mM MOPS pH 7.0, 0.2 mM EDTA, 100 μM […] (SEQ ID NO: 2), 10 mM magnesium acetate and [γ-^33P]-ATP (the activity and concentration were tailored as required). The reaction was started by adding a Mg/ATP mixture, and terminated by adding 0.5% phosphoric acid after 40 min of incubation at room temperature. 10 μL of the reactant was then dotted on a P30 filter pad, washed three times with 0.425% phosphoric acid and once with methanol within 4 minutes, and dried, and scintillation counting was performed.
as §3

For assay [3], the target named is T3, JAK3(h) (Homo sapiens, UniProt P52333).
T3 construct: purchased Eurofins, UK
T3 sequence (P52333 1-1124): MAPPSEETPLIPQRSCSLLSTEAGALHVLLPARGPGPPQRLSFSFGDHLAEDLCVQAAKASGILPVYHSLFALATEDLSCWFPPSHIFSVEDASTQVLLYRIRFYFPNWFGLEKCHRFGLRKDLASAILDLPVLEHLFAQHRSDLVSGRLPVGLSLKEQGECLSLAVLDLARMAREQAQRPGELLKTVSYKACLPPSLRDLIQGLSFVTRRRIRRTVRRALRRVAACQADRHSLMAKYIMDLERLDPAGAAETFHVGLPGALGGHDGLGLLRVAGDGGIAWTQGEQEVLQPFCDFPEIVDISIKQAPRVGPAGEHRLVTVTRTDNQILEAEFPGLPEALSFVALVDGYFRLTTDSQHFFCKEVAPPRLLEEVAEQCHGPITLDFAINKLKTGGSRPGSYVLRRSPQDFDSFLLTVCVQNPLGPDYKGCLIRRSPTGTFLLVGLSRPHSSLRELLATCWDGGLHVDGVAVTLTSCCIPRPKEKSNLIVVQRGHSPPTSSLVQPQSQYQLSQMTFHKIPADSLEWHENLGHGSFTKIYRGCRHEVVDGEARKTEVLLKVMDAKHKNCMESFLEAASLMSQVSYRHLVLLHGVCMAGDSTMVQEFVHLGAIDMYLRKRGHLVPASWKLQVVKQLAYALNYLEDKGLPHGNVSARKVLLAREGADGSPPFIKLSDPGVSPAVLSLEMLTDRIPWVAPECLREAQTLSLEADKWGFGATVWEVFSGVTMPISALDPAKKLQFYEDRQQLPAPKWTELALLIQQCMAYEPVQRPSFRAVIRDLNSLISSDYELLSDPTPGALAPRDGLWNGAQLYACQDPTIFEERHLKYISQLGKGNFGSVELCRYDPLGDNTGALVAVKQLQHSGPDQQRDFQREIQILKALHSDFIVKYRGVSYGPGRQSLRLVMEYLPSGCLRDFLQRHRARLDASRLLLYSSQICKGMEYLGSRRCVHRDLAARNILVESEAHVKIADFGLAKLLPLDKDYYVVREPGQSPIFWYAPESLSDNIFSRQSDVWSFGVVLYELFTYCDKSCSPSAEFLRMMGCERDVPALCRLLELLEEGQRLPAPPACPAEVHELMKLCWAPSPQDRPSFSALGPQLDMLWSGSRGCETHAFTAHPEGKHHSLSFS
As to the kind of experiment: In vitro activity assay of JAK3 kinase (radiometric, [γ-33P]-ATP). Format: biochemical. Conditions: recombinant human JAK3, 40 min at room temperature. The protocol:
as §1, §2
JAK3(h) was incubated with 8 mM MOPS pH 7.0, 0.2 mM EDTA, 500 μM GGEEEEYFELVKKKK (SEQ ID NO: 3), 10 mM magnesium acetate and [γ-^33P]-ATP (the activity and concentration were tailored as required). The reaction was started by adding a Mg/ATP mixture, and terminated by adding 0.5% phosphoric acid after 40 min of incubation at room temperature. 10 μL of the reactant was then dotted on a P30 filter pad, washed three times with 0.425% phosphoric acid and once with methanol within 4 minutes, and dried, and scintillation counting was performed.
as §3

Assay [4] concerns the target T4, TYK2(h) (Homo sapiens, UniProt P29597).
T4 construct: purchased Eurofins, UK
As to the kind of experiment: In vitro activity assay of TYK2 kinase (radiometric, [γ-33P]-ATP). Format: biochemical. As to conditions: recombinant human Tyk2, 40 min at room temperature. Here is the method:
as §1, §2
TYK2(h) was incubated with 8 mM MOPS pH 7.0, 0.2 mM EDTA, 250 μM GGMEDIYFEFMGGKKK (SEQ ID NO:4), 10 mM magnesium acetate and [γ-^33P]-ATP (the activity and concentration were tailored as required). The reaction was started by adding a Mg/ATP mixture, and terminated by adding 0.5% phosphoric acid after 40 min of incubation at room temperature. 10 μL of the reactant was then dotted on a P30 filter pad, washed three times with 0.425% phosphoric acid and once with methanol within 4 minutes, and dried, and scintillation counting was performed.
as §3

The subject of assay [5] is collagen-induced arthritis (CIA). The assay is described as follows: In vivo efficacy study of collagen-induced arthritis (CIA) in rats. Set-up: species or system Lewis rats. Conditions: 0.1 mg/kg, rat CIA. The protocol: [table] The compounds of the present application were tested for their therapeutic effect on arthritis using a rat collagen-induced arthritis model. Lewis rats were immunized. The day of the first immunization was recorded as day 0, and the subsequent days were recorded in order. The Lewis rats were anesthetized with isoflurane and injected with 50 μL of prepared collagen emulsion (containing 200 μg of CII) subcutaneously in the tail (2-3 cm away from the base of the tail). On day 21, the same volume of the collagen emulsion was injected in the tail in the same manner. Rats in the normal group were not immunized. On day 27 of the modeling, the rats were divided into groups and administered corresponding test compounds. For example, the female Lewis rats were orally administered different doses (see Table 4-1 for specific doses) of a solution of test compound 4 in a mixed solvent [0.5% HPMC E5/0.5% PVP K30/0.2% SLS in water] twice a day (8 test animals in each dose group). During 14 consecutive days of administration, the states of the rats were observed, and the foot volume swellings were recorded and scored.

T2 sequence (O60674 whole entry): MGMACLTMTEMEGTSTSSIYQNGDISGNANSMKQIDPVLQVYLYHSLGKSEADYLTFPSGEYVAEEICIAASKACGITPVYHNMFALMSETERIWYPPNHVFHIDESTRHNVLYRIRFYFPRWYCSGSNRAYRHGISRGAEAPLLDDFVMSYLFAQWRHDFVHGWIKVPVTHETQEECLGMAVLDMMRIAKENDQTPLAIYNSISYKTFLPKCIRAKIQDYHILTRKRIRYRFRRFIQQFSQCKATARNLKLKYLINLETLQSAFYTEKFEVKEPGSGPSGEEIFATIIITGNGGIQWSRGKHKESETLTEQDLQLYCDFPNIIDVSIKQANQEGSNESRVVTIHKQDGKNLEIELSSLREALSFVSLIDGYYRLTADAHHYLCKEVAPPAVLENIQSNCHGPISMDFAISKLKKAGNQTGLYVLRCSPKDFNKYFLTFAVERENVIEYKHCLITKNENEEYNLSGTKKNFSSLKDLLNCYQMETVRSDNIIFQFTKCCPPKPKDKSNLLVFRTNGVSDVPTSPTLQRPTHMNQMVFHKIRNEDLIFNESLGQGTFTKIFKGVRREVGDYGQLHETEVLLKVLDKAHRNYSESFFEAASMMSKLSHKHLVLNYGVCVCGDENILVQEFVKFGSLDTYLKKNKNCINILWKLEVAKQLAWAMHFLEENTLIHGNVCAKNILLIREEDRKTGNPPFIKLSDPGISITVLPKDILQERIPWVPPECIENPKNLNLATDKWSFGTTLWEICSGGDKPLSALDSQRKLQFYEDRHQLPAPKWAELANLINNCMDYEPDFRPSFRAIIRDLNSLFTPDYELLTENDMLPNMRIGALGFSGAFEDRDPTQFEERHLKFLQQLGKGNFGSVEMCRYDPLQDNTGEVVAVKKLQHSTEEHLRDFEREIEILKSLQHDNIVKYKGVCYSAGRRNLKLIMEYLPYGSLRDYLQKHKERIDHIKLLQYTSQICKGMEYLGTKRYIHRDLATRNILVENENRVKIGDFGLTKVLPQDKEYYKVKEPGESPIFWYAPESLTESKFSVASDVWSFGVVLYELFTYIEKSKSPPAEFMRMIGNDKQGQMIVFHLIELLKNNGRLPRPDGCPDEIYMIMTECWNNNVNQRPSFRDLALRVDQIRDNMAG
T4 sequence (P29597 whole entry): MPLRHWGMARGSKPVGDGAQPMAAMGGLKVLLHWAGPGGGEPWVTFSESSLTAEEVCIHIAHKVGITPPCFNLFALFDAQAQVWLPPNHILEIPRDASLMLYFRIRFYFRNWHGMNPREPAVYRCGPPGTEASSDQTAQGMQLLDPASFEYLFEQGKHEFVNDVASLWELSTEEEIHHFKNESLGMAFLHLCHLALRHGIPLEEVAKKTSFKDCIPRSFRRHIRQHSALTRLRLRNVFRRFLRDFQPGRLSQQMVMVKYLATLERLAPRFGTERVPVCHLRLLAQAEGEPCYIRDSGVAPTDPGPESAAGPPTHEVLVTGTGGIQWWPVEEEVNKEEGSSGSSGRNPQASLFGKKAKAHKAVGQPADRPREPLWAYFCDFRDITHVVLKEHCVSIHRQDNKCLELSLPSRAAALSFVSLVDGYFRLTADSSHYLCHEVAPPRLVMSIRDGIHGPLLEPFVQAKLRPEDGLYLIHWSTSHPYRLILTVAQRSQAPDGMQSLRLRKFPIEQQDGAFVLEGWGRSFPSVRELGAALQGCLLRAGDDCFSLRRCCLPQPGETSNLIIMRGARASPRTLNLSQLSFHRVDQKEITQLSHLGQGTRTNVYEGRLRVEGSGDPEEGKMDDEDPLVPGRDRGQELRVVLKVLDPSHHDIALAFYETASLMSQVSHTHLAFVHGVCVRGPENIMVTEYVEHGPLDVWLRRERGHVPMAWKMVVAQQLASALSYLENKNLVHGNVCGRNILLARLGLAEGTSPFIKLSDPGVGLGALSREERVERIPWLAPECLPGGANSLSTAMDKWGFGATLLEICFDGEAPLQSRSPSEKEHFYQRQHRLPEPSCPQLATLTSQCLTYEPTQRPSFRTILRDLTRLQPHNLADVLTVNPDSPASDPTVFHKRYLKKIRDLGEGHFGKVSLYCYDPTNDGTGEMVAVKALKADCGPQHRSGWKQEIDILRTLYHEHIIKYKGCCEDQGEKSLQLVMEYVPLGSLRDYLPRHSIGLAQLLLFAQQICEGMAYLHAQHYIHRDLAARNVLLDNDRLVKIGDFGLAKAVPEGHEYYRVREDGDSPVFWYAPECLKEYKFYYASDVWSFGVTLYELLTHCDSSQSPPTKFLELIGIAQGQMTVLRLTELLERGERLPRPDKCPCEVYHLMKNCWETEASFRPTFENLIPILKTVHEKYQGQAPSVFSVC
T1 sequence (P23458 whole entry): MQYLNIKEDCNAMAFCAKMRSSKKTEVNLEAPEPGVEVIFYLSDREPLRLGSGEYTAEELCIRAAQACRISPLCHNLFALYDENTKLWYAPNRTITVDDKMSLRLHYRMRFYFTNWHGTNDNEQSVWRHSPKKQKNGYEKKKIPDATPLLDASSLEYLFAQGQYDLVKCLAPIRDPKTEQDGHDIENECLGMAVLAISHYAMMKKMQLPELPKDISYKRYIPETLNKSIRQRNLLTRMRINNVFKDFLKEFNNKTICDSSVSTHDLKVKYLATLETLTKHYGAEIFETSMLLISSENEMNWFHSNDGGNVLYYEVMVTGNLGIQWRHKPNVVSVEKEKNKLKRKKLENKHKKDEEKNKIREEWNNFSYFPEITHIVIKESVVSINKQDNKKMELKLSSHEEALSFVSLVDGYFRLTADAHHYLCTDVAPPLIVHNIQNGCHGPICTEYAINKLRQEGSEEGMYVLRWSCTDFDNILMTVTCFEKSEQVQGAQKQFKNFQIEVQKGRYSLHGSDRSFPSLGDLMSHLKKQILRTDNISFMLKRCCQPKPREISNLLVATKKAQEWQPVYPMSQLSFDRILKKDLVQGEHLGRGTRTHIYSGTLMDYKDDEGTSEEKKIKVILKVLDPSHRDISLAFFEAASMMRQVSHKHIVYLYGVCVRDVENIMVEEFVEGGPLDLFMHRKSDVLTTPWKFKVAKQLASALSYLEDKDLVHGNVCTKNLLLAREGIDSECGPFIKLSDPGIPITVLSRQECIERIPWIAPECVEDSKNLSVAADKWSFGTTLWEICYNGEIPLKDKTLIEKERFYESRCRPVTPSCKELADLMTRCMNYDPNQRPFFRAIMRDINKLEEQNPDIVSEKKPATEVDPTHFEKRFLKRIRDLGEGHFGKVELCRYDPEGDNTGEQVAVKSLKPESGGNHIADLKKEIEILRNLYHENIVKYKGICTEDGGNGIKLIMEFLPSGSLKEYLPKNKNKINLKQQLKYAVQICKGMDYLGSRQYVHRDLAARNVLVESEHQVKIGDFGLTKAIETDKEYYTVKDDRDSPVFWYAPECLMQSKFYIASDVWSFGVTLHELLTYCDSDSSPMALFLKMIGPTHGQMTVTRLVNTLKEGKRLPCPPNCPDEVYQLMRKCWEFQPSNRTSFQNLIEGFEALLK

In general, IC50 refers to the concentration that inhibits the measured activity by half. As to `Cc1nc2cnc3[nH]ccc3c2n1C1CCc2cc(C#N)nn2C1` (single isomer, unassigned) [Compound 2A], the IC50 is less than 1 nM in assay [1], 2 nM in assay [2], 25 nM in assay [3] and 2 nM in assay [4].
On to `N#Cc1cc2n(n1)CC(n1c(C(F)(F)F)nc3cnc4[nH]ccc4c31)CC2` (single isomer, unassigned) [Compound 3A], for which the IC50 amounted to 3 nM in assay [1], 62 nM in assay [2], 217 nM in assay [3] and 57 nM in assay [4].
In the case of `C[C@@H](O)c1nc2cnc3[nH]ccc3c2n1[C@@H]1CCc2cc(C#N)nn2C1` [Compound 5], the IC50 in assay [1] came out at 9 nM; in assay [2], 250 nM; in assay [3], 576 nM; in assay [4], 231 nM.
On to `COc1nc2cnc3[nH]ccc3c2n1[C@H]1CCc2cc(C#N)nn2C1` [Compound 6], for which the IC50 in assay [1] worked out at 2.3 nM; in assay [2], 70.2 nM; in assay [3], 73.8 nM; in assay [4] it was 130 nM.
Take `C[C@@H](O)c1nc2cnc3[nH]ccc3c2n1[C@H]1CCc2cc(C#N)nn2C1` [Compound 7]: the IC50 was determined as 0.3 nM in assay [1], 53.9 nM in assay [2], 38.4 nM in assay [3] and 12.4 nM in assay [4].
Take `C[C@@H]1C[C@H]2[C@@H]3CCC4=CC(=O)C=C[C@]4(C)[C@@]3(F)[C@@H](O)C[C@]2(C)[C@@]1(O)C(=O)CO` [Dexamethasone, reference compound]: in assay [5], the “Clinical score (on day 14 of administration) Mean ± SEM” value amounted to 0.00 ± 0.00 and the Foot volume (mL, on day 14 of administration) Mean ± SEM is 1.22 ± 0.042 mL.
